From BigSolDB 2.1

OC[C@H]1O[C@@H](c2ccc(Cl)c(Cc3ccc(O[C@H]4CCOC4)cc3)c2)[C@H](O)[C@@H](O)[C@@H]1O
solubility (mole fraction)
Details | in DMF | in acetonitrile | in ethanol | in ethyl acetate | in ethylene glycol | in formamide | in methanol | in n-butanol | in n-propanol
278.15 K | 0.00117 | 6.19e-07 | 2.33e-06 | 7.16e-07 | 1.16e-05 | 8.05e-05 | 1.77e-05 | 1.81e-06 | 1.59e-06
283.15 K | 0.00124 | 9.85e-07 | 3.77e-06 | 1.07e-06 | 1.48e-05 | 9.2e-05 | 2.48e-05 | 2.73e-06 | 2.43e-06
288.15 K | 0.00129 | 1.46e-06 | 4.84e-06 | 1.42e-06 | 1.91e-05 | 0.000108 | 3e-05 | 4.04e-06 | 3.39e-06
293.15 K | 0.00134 | 1.97e-06 | 6.6e-06 | 1.97e-06 | 2.43e-05 | 0.000122 | 3.65e-05 | 5.9e-06 | 4.54e-06
298.15 K | 0.00142 | 2.62e-06 | 8.45e-06 | 2.56e-06 | 3.41e-05 | 0.000143 | 4.46e-05 | 8.49e-06 | 6.09e-06
303.15 K | 0.00149 | 3.52e-06 | 1.1e-05 | 3.12e-06 | 4.21e-05 | 0.000174 | 5.54e-05 | 1.2e-05 | 7.88e-06
308.15 K | 0.00158 | 4.87e-06 | 1.4e-05 | 4.27e-06 | 5.91e-05 | 0.000202 | 6.9e-05 | 1.62e-05 | 1.04e-05
313.15 K | 0.00165 | 6.15e-06 | 1.85e-05 | 5.56e-06 | 7.01e-05 | 0.000248 | 8.53e-05 | 2.21e-05 | 1.43e-05
318.15 K | 0.00171 | 8.16e-06 | 2.43e-05 | 6.89e-06 | 8.59e-05 | 0.000303 | 0.00011 | 3.02e-05 | 1.99e-05
